Experimental data as given in PubChem BioAssay AID212 (DTP/NCI, 2004).
Values joined by “and” are separate entries in the source; they are usually repeats but may differ in a detail not shown here. Equal entries are not always repeated. Inconclusive results are not listed.

Test system: BDF1 mice, colon carcinoma 38 sc, T/C %
Experiment: NCI In Vivo Anticancer Drug Screen. Data for tumor model Colon Carcinoma 38 (subcutaneous) in B6D2F1 (BDF1) mice
Conditions: endpoint: median tumor weight (est.), higher = larger tumour
Experimental: The antitumor activity of compounds was measured in mice bearing transplantable tumors. Survival or tumor size were measured and the results are expressed as the measurement made in the treated group (T) divided by the measurement made in the vehicle treated control group (C). The tumor model used in this assay is Colon Carcinoma 38 (subcutaneous) in B6D2F1 (BDF1) mice

[1] = dose: 12.5 mg/kg/injection, schedule: Q07DX002 (ip), vehicle: saline
[2] = dose: 25.0 mg/kg/injection, schedule: Q07DX002 (ip), vehicle: saline
[3] = dose: 50.0 mg/kg/injection, schedule: Q07DX002 (ip), vehicle: saline
[4] = dose: 200.0 mg/kg/injection, schedule: Q07DX002 (ip), vehicle: saline
[5] = dose: 0.5 mg/kg/injection, schedule: Q07DX003 (ip), vehicle: Klucel (hydroxypropylcellulose) (HPC)
[6] = dose: 1.0 mg/kg/injection, schedule: Q07DX003 (ip), vehicle: Klucel (hydroxypropylcellulose) (HPC)
[7] = dose: 4.0 mg/kg/injection, schedule: Q07DX003 (ip), vehicle: Klucel (hydroxypropylcellulose) (HPC)
[8] = dose: 12.5 mg/kg/injection, schedule: Q07DX002 (ip), vehicle: saline with Tween-80
[9] = dose: 25.0 mg/kg/injection, schedule: Q07DX002 (ip), vehicle: saline with Tween-80
[10] = dose: 3.12 mg/kg/injection, schedule: Q07DX002 (ip), vehicle: saline with Tween-80
[11] = dose: 6.25 mg/kg/injection, schedule: Q07DX002 (ip), vehicle: saline with Tween-80

For `ClC1C(Cl)C(Cl)C(Cl)C(Cl)C1Cl` (centres undefined), the T/C (dose: 25.0 mg/kg/injection, schedule: Q07DX002 (ip), vehicle: Klucel (hydroxypropylcellulose) (HPC)) was 103 % of control, the T/C (dose: 50.0 mg/kg/injection, schedule: Q07DX002 (ip), vehicle: Klucel (hydroxypropylcellulose) (HPC)) was 88 % of control and the T/C (dose: 56.0 mg/kg/injection, schedule: Q07DX002 (ip), vehicle: saline with Tween-80) was 109 % of control and 95 % of control. The T/C (dose: 100.0 mg/kg/injection, schedule: Q07DX002 (ip), vehicle: Klucel (hydroxypropylcellulose) (HPC)) was 71 % of control, the T/C (dose: 112.0 mg/kg/injection, schedule: Q07DX002 (ip), vehicle: saline with Tween-80) was 69 % of control and 82 % of control and the T/C (dose: 200.0 mg/kg/injection, schedule: Q07DX002 (ip), vehicle: Klucel (hydroxypropylcellulose) (HPC)) was 113 % of control. For the same compound, the T/C (dose: 400.0 mg/kg/injection, schedule: Q07DX002 (ip), vehicle: Klucel (hydroxypropylcellulose) (HPC)) was 118 % of control and the T/C (dose: 450.0 mg/kg/injection, schedule: Q07DX002 (ip), vehicle: saline with Tween-80) was 80 % of control and 85 % of control.
For `ClCCCN1CCN(CCCCl)CC1`, the T/C (dose: 12.5 mg/kg/injection, schedule: Q07DX002 (ip), vehicle: distilled water + alcohol) was 94 % of control, the T/C (dose: 25.0 mg/kg/injection, schedule: Q07DX002 (ip), vehicle: distilled water + alcohol) was 154 % of control and the T/C (dose: 50.0 mg/kg/injection, schedule: Q07DX002 (ip), vehicle: distilled water + alcohol) was 153 % of control and 207 % of control. The T/C (dose: 100.0 mg/kg/injection, schedule: Q07DX002 (ip), vehicle: distilled water + alcohol) was 39 % of control and 50 % of control and the T/C (dose: 200.0 mg/kg/injection, schedule: Q07DX002 (ip), vehicle: distilled water + alcohol) was 63 % of control.
`COc1cc2c(cc1O)C1C(O)C(O)C=C3CCN(C2)C31` (centres undefined) was tested, and the T/C (dose: 4.0 mg/kg/injection, schedule: Q07DX002 (ip), vehicle: saline + alcohol) was 105 % of control, the T/C (dose: 8.0 mg/kg/injection, schedule: Q07DX002 (ip), vehicle: saline + alcohol) was 79 % of control and the T/C (dose: 16.0 mg/kg/injection, schedule: Q07DX002 (ip), vehicle: saline + alcohol) was 105 % of control. For the same compound, the T/C (dose: 32.0 mg/kg/injection, schedule: Q07DX002 (ip), vehicle: saline + alcohol) was 73 % of control.
For `COC(=O)C(Cl)(Cl)N=Nc1c(Cl)cc(Cl)c(C)c1Cl`, the T/C [1] was 118 % of control, the T/C [2] was 123 % of control and the T/C [3] was 123 % of control. The T/C [4] was 101 % of control.
`CC1CC(C)CC(C)C(O)/C(C#N)=C/C=C/CC(C2CCCC2C(=O)O)OC(=O)CC(O)C(C)C1` (centres undefined) was tested, and the T/C (dose: 0.13 mg/kg/injection, schedule: Q07DX003 (ip), vehicle: Klucel (hydroxypropylcellulose) (HPC)) was 84 % of control, the T/C (dose: 0.25 mg/kg/injection, schedule: Q07DX003 (ip), vehicle: Klucel (hydroxypropylcellulose) (HPC)) was 80 % of control and the T/C [5] was 113 % of control. For the same compound, the T/C (dose: 1.0 mg/kg/injection, schedule: Q07DX002 (ip), vehicle: Klucel (hydroxypropylcellulose) (HPC)) was 92 % of control, the T/C [6] was 93 % of control and the T/C (dose: 2.0 mg/kg/injection, schedule: Q07DX003 (ip), vehicle: Klucel (hydroxypropylcellulose) (HPC)) was 69 % of control. For the same compound, the T/C (dose: 4.0 mg/kg/injection, schedule: Q07DX002 (ip), vehicle: Klucel (hydroxypropylcellulose) (HPC)) was 106 % of control, the T/C [7] was 88 % of control and the T/C (dose: 8.0 mg/kg/injection, schedule: Q07DX002 (ip), vehicle: Klucel (hydroxypropylcellulose) (HPC)) was 75 % of control.
With `CC(C)[NH-].CC(C)[NH-].[Cl][Pt+2][Cl]` the T/C (dose: 3.12 mg/kg/injection, schedule: Q07DX002 (ip), vehicle: dextrose) was 15 % of control, the T/C (dose: 3.13 mg/kg/injection, schedule: Q07DX002 (ip), vehicle: dextrose) was 122 % of control and the T/C (dose: 6.25 mg/kg/injection, schedule: Q07DX002 (ip), vehicle: dextrose) was 77 % of control. The T/C (dose: 6.25 mg/kg/injection, schedule: Q07DX002 (ip), vehicle: other) was 104 % of control, the T/C (dose: 12.5 mg/kg/injection, schedule: Q07DX002 (ip), vehicle: dextrose) was 71 % of control and the T/C (dose: 12.5 mg/kg/injection, schedule: Q07DX002 (ip), vehicle: other) was 53 % of control. For the same compound, the T/C (dose: 25.0 mg/kg/injection, schedule: Q07DX002 (ip), vehicle: dextrose) was 79 % of control and 88 % of control, the T/C (dose: 25.0 mg/kg/injection, schedule: Q07DX002 (ip), vehicle: other) was 84 % of control and the T/C (dose: 50.0 mg/kg/injection, schedule: Q07DX002 (ip), vehicle: dextrose) was 58 % of control and 71 % of control. The T/C (dose: 50.0 mg/kg/injection, schedule: Q07DX002 (ip), vehicle: other) was 122 % of control and the T/C (dose: 100.0 mg/kg/injection, schedule: Q07DX002 (ip), vehicle: other) was 52 % of control.
`COc1cc(C2C3=C(CC(C)(C)CC3=O)N(CC(=O)O)C3=C2C(=O)CC(C)(C)C3)ccc1O` was tested, and the T/C [1] was 90 % of control, the T/C [2] was 99 % of control and the T/C [3] was 118 % of control. The T/C (dose: 100.0 mg/kg/injection, schedule: Q07DX002 (ip), vehicle: saline) was 111 % of control, the T/C [4] was 55 % of control and the T/C (dose: 400.0 mg/kg/injection, schedule: Q07DX002 (ip), vehicle: saline) was 118 % of control.
In the case of `NC(=O)c1cn(C2OC(CO)C(O)C2O)c2ncnc(N)c12` (centres undefined), the T/C (dose: 0.5 mg/kg/injection, schedule: Q07DX002 (ip), vehicle: suspension in saline) is reported as 55 % of control, the T/C (dose: 1.0 mg/kg/injection, schedule: Q07DX002 (ip), vehicle: suspension in saline) is reported as 84 % of control and the T/C (dose: 2.0 mg/kg/injection, schedule: Q07DX002 (ip), vehicle: saline with Tween-80) is reported as 73 % of control. The T/C (dose: 2.0 mg/kg/injection, schedule: Q07DX002 (ip), vehicle: suspension in saline) was 56 % of control and 62 % of control, the T/C (dose: 4.0 mg/kg/injection, schedule: Q07DX002 (ip), vehicle: saline with Tween-80) was 79 % of control and the T/C (dose: 4.0 mg/kg/injection, schedule: Q07DX002 (ip), vehicle: suspension in saline) was 48 % of control and 73 % of control. For the same compound, the T/C (dose: 8.0 mg/kg/injection, schedule: Q07DX002 (ip), vehicle: suspension in saline) was 38 % of control.
With `NC(=S)c1cn(C2OC(CO)C(O)C2O)c2ncnc(N)c12` (centres undefined) the T/C (dose: 1.25 mg/kg/injection, schedule: Q07DX002 (ip), vehicle: suspension in saline) was 108 % of control, the T/C (dose: 2.5 mg/kg/injection, schedule: Q07DX002 (ip), vehicle: suspension in saline) was 81 % of control and the T/C (dose: 5.0 mg/kg/injection, schedule: Q07DX002 (ip), vehicle: suspension in saline) was 104 % of control. For the same compound, the T/C (dose: 10.0 mg/kg/injection, schedule: Q07DX002 (ip), vehicle: suspension in saline) was 82 % of control.
In the case of `CC(=O)Oc1c(C)[nH]ccc1=O`, the T/C (dose: 6.25 mg/kg/injection, schedule: Q07DX002 (ip), vehicle: saline) is reported as 107 % of control and the T/C [4] is reported as 107 % of control.
`COc1ccc(CC2C(=O)NC(C)C(=O)N(C)C3C(=O)N(C)C(Cc4ccc(O)c(c4)Oc4ccc(cc4)C3O)C(=O)NC(C)C(=O)NC(C)C(=O)N2C)cc1` (centres undefined) was tested, and the T/C [5] was 98 % of control, the T/C [6] was 106 % of control and the T/C [7] was 182 % of control. For the same compound, the T/C (dose: 8.0 mg/kg/injection, schedule: Q07DX003 (ip), vehicle: Klucel (hydroxypropylcellulose) (HPC)) was 159 % of control and the T/C (dose: 16.0 mg/kg/injection, schedule: Q07DX003 (ip), vehicle: Klucel (hydroxypropylcellulose) (HPC)) was 44 % of control.
For `Cc1ccc2c(c1)N=C(Nc1ccccc1)N=S2(C)=O` (centres undefined), the T/C [8] was 76 % of control, the T/C [9] was 85 % of control and the T/C (dose: 50.0 mg/kg/injection, schedule: Q07DX002 (ip), vehicle: saline with Tween-80) was 82 % of control. For the same compound, the T/C (dose: 200.0 mg/kg/injection, schedule: Q07DX002 (ip), vehicle: saline with Tween-80) was 105 % of control.
For `CC(=O)OCC1OC([S-])C(OC(C)=O)C(OC(C)=O)C1OC(C)=O.CC[PH+](CC)CC.CC[PH+](CC)CC.[Au].[Au]` (centres undefined), the T/C (dose: 2.5 mg/kg/injection, schedule: Q07DX002 (ip), vehicle: Klucel (hydroxypropylcellulose) (HPC)) was 99 % of control and the T/C (dose: 10.0 mg/kg/injection, schedule: Q07DX002 (ip), vehicle: Klucel (hydroxypropylcellulose) (HPC)) was 89 % of control and 93 % of control.
`C=C1C(=O)C23[C@H](O)C1CC[C@H]2[C@]12COC3(O)[C@@H](O)[C@@H]1C(C)(C)CC[C@@H]2O` was tested, and the T/C (dose: 1.56 mg/kg/injection, schedule: Q07DX002 (ip), vehicle: saline with Tween-80) was 104 % of control, the T/C [10] was 112 % of control and 96 % of control and the T/C [11] was 100 % of control. The T/C [8] was 80 % of control.
For `CCOC(=O)c1ccc(NN=NCCF)cc1`, the T/C [10] was 86 % of control, the T/C [11] was 94 % of control and the T/C [8] was 70 % of control. For the same compound, the T/C [9] was 89 % of control.
